Data reported in US20170119776A1, “CHIRAL 2,5-DISUBSTITUTED CYCLOPENTANECARBOXYLIC ACID DERIVATIVES AND USE THEREOF” (BAYER PHARMA AKTIENGESELLSCHAFT, priority 2014, published 2017).
pIC50: −log10 of the molar value.

Key:
Assay type in all cases: biochemical
[1] = molecular target: T1, MMP-1 (Homo sapiens, UniProt P03956); test: In vitro MMP-1 inhibition test
T1 construct: purchased R&D Systems 901-MP
T1 sequence (P03956 100-469): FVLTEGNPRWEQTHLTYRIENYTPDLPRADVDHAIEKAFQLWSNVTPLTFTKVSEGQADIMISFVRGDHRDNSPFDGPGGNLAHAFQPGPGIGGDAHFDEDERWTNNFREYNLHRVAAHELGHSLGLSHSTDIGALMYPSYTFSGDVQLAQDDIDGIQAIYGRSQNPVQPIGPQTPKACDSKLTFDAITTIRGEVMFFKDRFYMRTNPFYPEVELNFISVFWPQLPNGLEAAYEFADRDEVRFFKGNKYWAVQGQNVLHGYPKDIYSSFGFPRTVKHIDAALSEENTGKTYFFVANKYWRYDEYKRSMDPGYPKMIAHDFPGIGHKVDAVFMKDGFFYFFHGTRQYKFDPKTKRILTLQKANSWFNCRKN
Description: (§1) The activity strength of the compounds according to the invention towards other MMPs (and therefore their selectivity) is likewise ascertained in in vitro inhibition tests. The MMP-mediated amidolytic cleavage of a suitable peptide substrate also leads here to a fluorescent light increase. The signal intensity of the fluorescent light is directly proportional to the enzyme activity. The active concentration of a test compound at which half of the enzyme is inhibited (50% signal intensity of the fluorescent light) is given as IC50 value.
(§2) Recombinant MMP-1 (R&D Systems, 901-MP) is chemically activated in accordance with the manufacturer's instructions by using APMA. 1 μl of the test compound to be analysed (as a solution in DMSO, suitable concentrations e.g. 1 nM to 30 μM) is pipetted into 24 μl of activated enzyme (final concentration e.g. 2 nM) in reaction buffer (50 mM Tris/HCl pH 7.5, 10 mM CaCl2, 150 mM NaCl, 0.05% Brij®-35) in a white 384-hole microtiter plate (MTP). The enzymatic reaction is started by adding the intramolecularly quenched substrate Mca-Pro-Leu-Gly-Leu-Dpa(Dnp)-Ala-Arg-NH2 (final concentration e.g. 10 μM; R&D Systems, ES-001), such that a total test volume of 50 μl results. The progress of the MMP-1 reaction is measured by measuring the fluorescence intensity (excitation 320 nm, emission 410 nm) over a suitable period (e.g. over 120 min at a temperature of 32° C.).
(§3) The IC50 values were determined for racemates and enantiomers from differently generated DMSO stock solutions. Whereas an automatically produced DMSO stock solution from the internal substance logistics was used for racemates by means of a standard method, in the case of enantiomers a freshly produced, manually prepared DMSO stock solution was used in each case for a more precise direct comparison of the enantiomers with one another.

[2] = molecular target: T2, MMP-16 (Homo sapiens, UniProt P51512); test: In vitro MMP-16 inhibition test
T2 construct: purchased R&D Systems 1785-MP
Description: as §1
Recombinant MMP-16 (R&D Systems, 1785-MP) is enzymatically activated in accordance with the manufacturer's instructions using recombinant furin (R&D Systems, 1503-SE). 1 μl of the test compound to be analysed (as a solution in DMSO, suitable concentrations e.g. 1 nM to 30 μM) is pipette into 24 μl of activated enzyme (final concentration e.g. 1 nM) in reaction buffer (50 mM Tris/HCl pH 7.5, 10 mM CaCl2, 150 mM NaCl, 0.05% Brij®-35) in a white 384-hole microtiter plate (MTP). The enzymatic reaction is started by adding the intramolecularly quenched substrate Mca-Lys-Pro-Leu-Gly-Leu-Dpa(Dnp)-Ala-Arg-NH2 (final concentration e.g. 5 μM; R&D Systems, ES-010), such that a total test volume of 50 μl results. The progress of the MMP-16 reaction is measured by measuring the fluorescence intensity (excitation 320 nm, emission 410 nm) over a suitable period (e.g. over 120 min at a temperature of 32° C.).
as §3

[3] = molecular target: T3, MMP-2 of the mouse (Mus musculus, UniProt P33434); test: In vitro MMP-2 inhibition test of the mouse
T3 construct: purchased R&D Systems 924-MP
Description: as §1
as §2, with “Recombinant MMP-2 of the mouse” for “Recombinant MMP-1”, “Systems, 924-MP)” for “Systems, 901-MP)”, “instructions” for “instructions by”, “e.g. 0.1” for “e.g. 2”, “the MMP-2” for “the MMP-1”
(§4) Tables 3A and 3B below give the IC50 values from these tests for the inhibition of rodent MMPs for representative embodiment examples of the present invention and also for two structurally related comparison compounds from the prior art (as racemate and separated enantiomer)→(in part as average values from several independent individual determinations and rounded to two significant places). The IC50 values were determined for racemates and enantiomers from differently generated DMSO stock solutions. Whereas an automatically created DMSO stock solution from the internal substance logistics was used for racemates by means of a standard method, in the case of enantiomers, in each case a freshly produced, manually prepared DMSO stock solution was used for a more precise direct comparison of the enantiomers with one another.

[4] = molecular target: T4, MMP-3 of the mouse (Mus musculus, UniProt P28862); test: In vitro MMP-3 inhibition test of the mouse
T4 construct: purchased R&D Systems 548-MP
Description: as §1
Recombinant MMP-3 of the mouse (R&D Systems, 548-MP) is chemically activated in accordance with the manufacturer's instructions using APMA. 1 μl of the test compound to be analysed (as a solution in DMSO, suitable concentrations e.g. 1 nM to 30 μM) is pipetted into 24 μl of activated enzyme (final concentration e.g. 0.5 nM) in reaction buffer (50 mM Tris/HCl pH 7.5, 10 mM CaCl2, 150 mM NaCl, 0.05% Brij®-35) in a white 384-hole microtiter plate (MTP). The enzymatic reaction is started by adding the intramolecularly quenched substrate Mca-Arg-Pro-Lys-Pro-Val-Glu-Nval-Trp-Arg-Lys(Dnp)-NH2 (final concentration e.g. 5 μM; R&D Systems, ES-002), such that a total test volume of 50 μl results. The progress of the MMP-3 reaction is measured by measuring the fluorescence intensity (excitation 320 nm, emission 410 nm) over a suitable period (e.g. over 120 min at a temperature of 32° C.).
as §4

T3 sequence (P33434 110-662): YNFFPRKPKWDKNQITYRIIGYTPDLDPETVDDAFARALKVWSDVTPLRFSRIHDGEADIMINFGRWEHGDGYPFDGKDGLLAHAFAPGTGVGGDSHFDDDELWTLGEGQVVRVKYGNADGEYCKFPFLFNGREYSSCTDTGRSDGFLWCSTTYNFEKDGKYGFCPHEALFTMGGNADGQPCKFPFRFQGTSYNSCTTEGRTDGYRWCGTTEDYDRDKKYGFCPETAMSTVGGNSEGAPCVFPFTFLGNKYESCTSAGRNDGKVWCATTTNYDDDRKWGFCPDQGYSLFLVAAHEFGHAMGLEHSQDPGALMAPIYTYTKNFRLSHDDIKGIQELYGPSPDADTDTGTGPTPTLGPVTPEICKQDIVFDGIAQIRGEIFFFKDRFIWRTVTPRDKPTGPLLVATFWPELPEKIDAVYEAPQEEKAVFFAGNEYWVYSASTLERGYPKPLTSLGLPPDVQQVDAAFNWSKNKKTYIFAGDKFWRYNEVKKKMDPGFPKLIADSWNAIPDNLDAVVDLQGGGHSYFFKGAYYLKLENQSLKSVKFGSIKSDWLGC
T4 sequence (P28862 100-477): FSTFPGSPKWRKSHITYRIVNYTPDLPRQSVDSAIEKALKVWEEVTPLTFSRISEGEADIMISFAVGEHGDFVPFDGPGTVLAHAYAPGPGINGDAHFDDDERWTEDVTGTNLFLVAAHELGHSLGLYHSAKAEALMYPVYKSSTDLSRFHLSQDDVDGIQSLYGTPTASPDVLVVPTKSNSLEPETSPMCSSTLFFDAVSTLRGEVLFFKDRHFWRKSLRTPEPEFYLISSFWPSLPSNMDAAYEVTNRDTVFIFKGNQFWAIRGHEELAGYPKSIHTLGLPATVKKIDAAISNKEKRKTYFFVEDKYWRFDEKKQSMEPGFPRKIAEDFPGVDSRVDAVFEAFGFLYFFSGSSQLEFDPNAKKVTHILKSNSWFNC
T2 sequence (P51512 120-607): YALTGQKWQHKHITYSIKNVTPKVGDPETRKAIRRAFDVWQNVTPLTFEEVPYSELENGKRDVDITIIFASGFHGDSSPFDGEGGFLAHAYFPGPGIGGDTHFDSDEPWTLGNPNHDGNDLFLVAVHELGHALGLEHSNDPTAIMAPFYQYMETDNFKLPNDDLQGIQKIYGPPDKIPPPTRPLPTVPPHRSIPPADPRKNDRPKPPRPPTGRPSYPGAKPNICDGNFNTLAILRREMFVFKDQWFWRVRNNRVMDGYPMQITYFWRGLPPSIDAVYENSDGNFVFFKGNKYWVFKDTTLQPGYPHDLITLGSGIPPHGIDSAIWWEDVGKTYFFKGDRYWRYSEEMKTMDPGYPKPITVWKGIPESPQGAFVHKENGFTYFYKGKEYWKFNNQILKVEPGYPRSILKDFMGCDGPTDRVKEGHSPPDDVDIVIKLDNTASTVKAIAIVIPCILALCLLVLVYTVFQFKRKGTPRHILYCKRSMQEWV

Row | SMILES | pIC50 [1] | pIC50 [2] | pIC50 [3] | pIC50 [4]
1 | O=C(O)[C@H]1[C@H](Cn2nnc3ccccc3c2=O)CC[C@@H]1C(=O)c1ccc(-c2ccc(Cl)cc2)cc1 (racemic) [Comparative Example A-1, (1RS,2RS,5SR)-2-[(4′-chlorobiphenyl-4-yl)carbonyl]-5-[(4-oxo-1,2,3-benzotriazin-3(4H)-yl)methyl]cyclopentanecarboxylic acid (racemate)] | 6.66 | 7.80 | 8.89 | 7.77
2 | CCCCCOc1ccc(C(=O)CC(CCn2nnc3ccccc3c2=O)C(=O)O)cc1 (racemic) [Comparative Example B-1, (+/−)-4-Oxo-2-[2-(4-oxo-1,2,3-benzotriazin-3(4H)-yl)ethyl]-4-[4-(pentyloxy)phenyl]butanoic acid (racemate)] | < 4.40 | 4.66 | 6.21 | 4.89
3 | O=C(O)[C@H]1[C@H](Cn2nnc3ccccc3c2=O)CC[C@@H]1C(=O)c1ccc(OCc2ccccc2)cc1 (racemic) [Example 1, (+/−)-(1RS,2RS,5SR)-2-[4-(Benzyloxy)benzoyl]-5-[(4-oxo-1,2,3-benzotriazin-3(4H)-yl)methyl]cyclopentanecarboxylic acid (racemate)] | 4.92 | 6.89 | 7.48 | 6.54
4 | CCCCCOc1ccc(C(=O)CC(CCn2nnc3ccccc3c2=O)C(=O)O)cc1 (single isomer, unassigned; enantiomer 1) [Comparative Example B-2, (+)-4-Oxo-2-[2-(4-oxo-1,2,3-benzotriazin-3(4H)-yl)ethyl]-4-[4-(pentyloxy)phenyl]butanoic acid (enantiomer 1)] | < 4.40 | 5.17 | 6.84 | 5.17
5 | O=C(O)[C@@H]1[C@@H](Cn2nnc3ccccc3c2=O)CC[C@H]1C(=O)c1ccc(-c2ccc(Cl)cc2)cc1 (single isomer, unassigned; enantiomer 2) [Comparative Example A-3, (1RS,2RS,5SR)-2-[(4′-Chlorobiphenyl-4-yl)carbonyl]-5-[(4-oxo-1,2,3-benzotriazin-3(4H)-yl)methyl]cyclopentanecarboxylic acid (enantiomer 2)] | 6.87 | 8.28 | > 9.21 | 7.95
6 | O=C(O)[C@H]1[C@H](Cn2nnc3ccccc3c2=O)CC[C@@H]1C(=O)c1ccc(OCc2ccccc2)cc1 [Example 2, (+)-(1S,2S,5R)-2-[4-(Benzyloxy)benzoyl]-5-[(4-oxo-1,2,3-benzotriazin-3(4H)-yl)methyl]cyclopentanecarboxylic acid] | 5.24 | 7.11 | 7.78 | 7.06
